Assay results from article PMC10505172, “Discovery and pharmacophoric characterization of chemokine network inhibitors using phage-display, saturation mutagenesis and computational modelling” (Nature Communications, 2023).
Like-named read-outs stand apart in the source and are kept apart here. Ends that are not written are not given here.

Legend:
CCL8 [1] = target: T1, CCL8 (Homo sapiens, UniProt P80075); assay: CCL8-induced THP1 cell migration (chemotaxis); type: cell-based; settings: for effect on chemokine-induced cell migration compared with scrambled control HD2SCR: peptides 10 μM, chemokine at EC80, THP1 cells, n = 3 biological replicates, Dunnett's test
T1 construct: purchased Peprotech 300-15
T1 sequence (P80075 24-99): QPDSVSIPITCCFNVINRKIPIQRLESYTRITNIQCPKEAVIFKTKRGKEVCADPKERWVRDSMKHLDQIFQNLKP
Protocol: (§1) For THP1 migration assays, 300000 cells/well were added to the top chamber of a 5-µm 96-well Transwell insert (3387, Corning) in 50 µL of cell migration media (RPMI-1640 (R0883, Sigma), 0.5% FBS (F9665, Sigma), 4 mM L-Glutamine (G7513, Sigma), 0.05% DMSO (D4540, Sigma)). The bottom chamber contained 150 µL of migration media with chemokine and peptide added. Cells were migrated at 37 °C in 5% CO2 for 4 h.
Following the migration assay the migration plate was shaken at 850 RPM for 10 min, and media from bottom plate transferred to a round-bottomed 96 well plate (353910, Falcon). Cell counts were determined using an Atune NxT Flow Cytometer Plate Reader with Cytkick autosampler (ThermoFisher), based on cell size parameters FSC-H/SSC-H, and a previously defined gate setting for each cell type (Supplementary Fig. 11). All experiments were performed as three technical and three biological replicates. Statistical significances between control and experimental groups was evaluated using Dunnett’s test[73]. IC50 experiments were performed at the EC80 dose of chemokine. EC80 was calculated by fitting a chemokine dose-response curve with a 3-parameter log-logistic model (fixing the top to 100%) using the function “drm” in R-package drc[74]. IC50 was calculated by fitting an inhibitor response curve with a 4-parameter log-logistic model using the function “drm” in R-package drc[74]. All IC50 values reported had p-value < 0.05.

CCL5 [2] = target: T2, CCL5 (Homo sapiens, UniProt P13501); assay: CCL5-induced THP1 cell migration (chemotaxis); type: cell-based
T2 construct: purchased Peprotech 300-06
T2 sequence (P13501 24-91): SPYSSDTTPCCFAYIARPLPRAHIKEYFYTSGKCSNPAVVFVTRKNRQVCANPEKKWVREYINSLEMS
Protocol: as §1
(§2) Following the migration assay the migration plate was shaken at 850 RPM for 10 min, and media from bottom plate transferred to a round-bottomed 96 well plate (353910, Falcon). Cell counts were determined using an Atune NxT Flow Cytometer Plate Reader with Cytkick autosampler (ThermoFisher), based on cell size parameters FSC-H/SSC-H, and a previously defined gate setting for each cell type (Supplementary Fig. 11). All experiments were performed as three technical and three biological replicates. Statistical significances between control and experimental groups was evaluated using Dunnett’s test[73]. IC50 experiments were performed at the EC80 dose of chemokine. EC80 was calculated by fitting a chemokine dose-response curve with a 3-parameter log-logistic model (fixing the top to 100%) using the function “drm” in R-package drc[74]. IC50 was calculated by fitting an inhibitor response curve with a 4-parameter log-logistic model using the function “drm” in R-package drc[74]. […]

CXCL10 [3] = target: T3, CXCL10 (Homo sapiens, UniProt P02778); assay: CXCL10-induced activated T cell (ATC) migration (chemotaxis); type: cell-based
T3 construct: purchased Peprotech 300-12
Protocol: For activated-T cell migration assays, 100000 cells/well were added to the top chamber of a 3-µm Transwell insert (3385, Corning) in 50 µL of migration media (HBSS (14025-092, Life Technologies), 0.1% protease free bovine serum albumin (A7030, Sigma), 0.05% DMSO (D4540, Sigma)). The bottom chamber contained 150 µL of migration media with chemokine and peptide added. Cells were migrated at 37 °C in 5% CO2 for 2 h.
as §2

CXCL6 = target: T4, CXCL6 (Homo sapiens, UniProt P80162); assay: CXCL6-induced Jurkat CXCR1 (J:CXCR1) migration (chemotaxis); type: cell-based
T4 construct: purchased Peprotech 300-41
T4 sequence (P80162 38-114): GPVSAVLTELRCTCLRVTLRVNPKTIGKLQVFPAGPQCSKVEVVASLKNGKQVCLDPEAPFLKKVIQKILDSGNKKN
Protocol: as §1
J:CXCR1 migration assays were performed exactly as for THP1 assays except that a 3-µm Transwell insert (3385, Corning) was used.
Following the migration assay the migration plate was shaken at 850 RPM for 10 min, and media from bottom plate transferred to a round-bottomed 96 well plate (353910, Falcon). Cell counts were determined using an Atune NxT Flow Cytometer Plate Reader with Cytkick autosampler (ThermoFisher), based on cell size parameters FSC-H/SSC-H, and a previously defined gate setting for each cell type (Supplementary Fig. 11). […] Statistical significances between control and experimental groups was evaluated using Dunnett’s test[73]. […] EC80 was calculated by fitting a chemokine dose-response curve with a 3-parameter log-logistic model (fixing the top to 100%) using the function “drm” in R-package drc[74]. IC50 was calculated by fitting an inhibitor response curve with a 4-parameter log-logistic model using the function “drm” in R-package drc[74]. […]

CCL7 [4] = target: T5, CCL7 (Homo sapiens, UniProt P80098); assay: CCL7-induced THP1 cell migration (chemotaxis); type: cell-based
T5 construct: purchased Peprotech 300-17
T5 sequence (P80098 24-99): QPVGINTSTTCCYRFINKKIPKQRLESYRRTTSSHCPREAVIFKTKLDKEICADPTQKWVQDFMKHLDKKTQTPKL
Protocol: as §1, §2

CCL5 [5] = settings: cited from earlier work
Source text: Peptides and peptidomimetics that mimic the activity of parental proteins have been successfully developed from several naturally occurring proteins into viable clinical therapeutics. Exemplars include the peptidomimetics captopril, eptifibatide and tirofiban, which are based on peptides derived from the snake venom toxins bradykinin-potentiating-peptide, barbourin and echistatin respectively. […] Inspired by these exemplars, by usi ...

[6] = test system: 25 biotinylated chemokines; assay: Phage-display library selection with deep sequencing; type: binding, human; settings: multivalent p8 phage display, three selection rounds, 25 chemokine baits, enrichment vs input library
Protocol: Phage display screening was performed using a protocol as described[71] with certain modifications. Experiments were performed in 96-well plates (Greiner Bio-One, 655180). Briefly, biotinylated chemokines (1 μg, Almac or ProteinFoundry, Supplementary Table 1) were immobilised on 5 μl streptavidin-coated magnetic beads (Dynabeads™ M-280 Streptavidin, Invitrogen, 11205D) and incubated overnight at 4 °C. […]
Inserts from the input library and from the final phage population following selection were amplified by PCR using primers: 5′- […] and 5′-[…], (Life Technologies). The PCR products were cleaned up using Monarch® PCR & DNA Cleanup Kit (5 μg) (T1030, NEB), 260/280 ratio determined by Nanodrop, quantified using a Qubit dsDNA Quantitation, High Sensitivity Kit (Q32851, Thermo Scientific) and subsequently sequenced at Azenta/GeneWiz using the AmpliconEZ protocol.
Paired end read Fastq files were joined by the read id. […] Hexadecapeptide enrichment (E) following selection was calculated as ratio of output peptide frequency to input peptide frequency and expressed as log2E. […]

CCL11 = assay: Biolayer interferometry cross-binding screen; set-up: species or system human; settings: 1 μM chemokine, fusion 1 mg/mL immobilised; specific if Rmax exceeded 3 times Rmax of SUMO:HD2SCR; two independent experiments
Protocol: (§3) The binding of His-SUMO tagged peptide fusions to various chemokines (Supplementary Table 3) was investigated by biolayer interferometry (BLI) using Ni-NTA biosensors (18-5101, ForteBio). All BLI data were obtained at 25 °C using a ForteBio-Sartorius Octet RED 384 instrument and Octet 384-well tilted bottom microplate (18-5080, Sartorius). The biosensors were preincubated overnight at room temperature in BLI buffer (PBS, 500 mM NaCl, 0.01% BSA (A7638, Sigma) + 0.002% Tween (P2287, Sigma)). His-SUMO tagged peptide fusions at 1 mg/mL (for cross-binding screen assay) and at 0.25 mg/mL (for kinetic assays) were immobilised on the Ni-NTA biosensors for 500 s using the BLI buffer. The HIS:SUMO fusion-loaded biosensors were then washed in the BLI buffer to allow signal stabilisation. To study the association with the analyte (chemokines), the biosensors were then dipped in chemokine solutions of various concentrations (1 μM for cross-binding screen assays, a range of 25–750 nM for kinetic assays) made in the BLI buffer, for either 300 s for cross-binding screen assays, or 600 s for kinetic assays. This was followed by the dissociation step, where the biosensors were incubated in BLI buffer for 300 s for screening assays and 600 s for kinetic assays. For chemokine cross-binding screens, wavelength shift was normalised by subtracting the signal from buffer control, and normalising the highest Rmax (i.e., with CCL8 and HD2) obtained in the experiment to 1. Kinetic data was analysed using buffer subtracted wavelength shift and a 1:1 binding model. […]
(§4) independent experiments. Plots display normalised wavelength shift (y axis; nm) versus time (x-axis; seconds). Vertical dotted line indicates the onset of dissociation. Cross-binding experiments (at 1 uM chemokine concentration) were performed with a panel of chemokines (see Supplementary information
(§5) Table 3). […] Chemokine names are indicated. […]
(§6) specific binding in two independent experiments are shown. […]

CCL1 = assay: Biolayer interferometry cross-binding screen; set-up: species or system human; settings: 1 μM chemokine, fusion 1 mg/mL immobilised; specific if Rmax exceeded 3 times Rmax of SUMO:HD2SCR; two independent experiments
Protocol: as §3, §4, §5, §6

CXCL13 = assay: Biolayer interferometry cross-binding screen; set-up: species or system human; settings: 1 μM chemokine, fusion 1 mg/mL immobilised; specific if Rmax exceeded 3 times Rmax of SUMO:HD2SCR; two independent experiments
Protocol: as §3, §4, §5, §6

CXCL10 [7] = target: T3, CXCL10; assay: Biolayer interferometry cross-binding screen; settings: 1 μM chemokine, fusion 1 mg/mL immobilised; specific if Rmax exceeded 3 times Rmax of SUMO:HD2SCR; two independent experiments
Protocol: as §3, §4, §5, §6

CCL5 [8] = target: T2, CCL5; assay: Biolayer interferometry cross-binding screen; settings: 1 μM chemokine, fusion 1 mg/mL immobilised; specific if Rmax exceeded 3 times Rmax of SUMO:HD2SCR; two independent experiments
Protocol: as §3, §4, §5, §6

CCL7 [9] = target: T5, CCL7; assay: Biolayer interferometry cross-binding screen; settings: 1 μM chemokine, fusion 1 mg/mL immobilised; specific if Rmax exceeded 3 times Rmax of SUMO:HD2SCR; two independent experiments
Protocol: as §3, §4, §5, §6

CCL8 [10] = target: T1, CCL8; assay: Biolayer interferometry, His-SUMO peptide fusion binding to chemokine
Source text: We next evaluated the ability of the exemplar peptide HD2 to bind a panel of chemokines (Supplementary Table 3) using biolayer interferometry (BLI). We generated HD2 and a scrambled control (HD2SCR) as HIS:SUMO fusion proteins in E.coli. This approach results in soluble proteins that can be immobilised on to BLI sensors through the N-terminal HIS tag. […] The binding of HD2 to these chemokines was characterised at different chemokine doses to evaluate binding affinity (KD). […] As chemokines are known to oligomerize in solution and also upon glycosaminoglycan binding, the most parsimonious explanation for this binding profile is chemokine oligomerization at the BLI sensor. […] The most likely explanation is that multivalent phage peptide-display allows identification of lower affinity interactions in comparison to BLI[40].
The binding of His-SUMO tagged peptide fusions to various chemokines (Supplementary Table 3) was investigated by biolayer interferometry (BLI) using Ni-NTA biosensors (18-5101, ForteBio). All BLI data were obtained at 25 °C using a ForteBio-Sartorius Octet RED 384 instrument and Octet 384-well tilted bottom microplate (18-5080, Sartorius). […] Kinetic data was analysed using buffer subtracted wavelength shift and a 1:1 binding model.

DEDYEDFFKPVTCYFA [HD540, hexadecapeptide from evasin EV672_RHIPC]
effect on chemokine-induced cell migration compared with scrambled control HD2SCR (CCL8 [1]): inhibition

EDEDYEDFFKPVTCYF [HD845, hexadecapeptide from evasin EV672_RHIPC, previously described as BK1.5]
effect on chemokine-induced cell migration compared with scrambled control HD2SCR (CCL8 [1]): inhibition

EEDDYTAYAPLTCYFT-NH2 [HD2]
IC50 (CCL8 [1]): 19 nM
IC50 (CCL5 [2]): 790 nM
IC50 (CXCL10 [3]): 2500 nM
IC50 (CXCL6): 7100 nM
IC50 (CXCL6; IC50, median, median of biological replicates (n = 3), Fig. 6k, J:CXCR1 cells, chemokine at EC80): 14000 nM
IC50 (CCL7 [4]): 5700 nM

EEEDDYTAYAPLTAYFTN [Ev4Glu^14-Asn^31]
inhibition of CCL5 function (CCL5 [5]): inhibits CCL5 function

EEEDDYTAYAPLTCYF [HD7, hexadecapeptide from evasin EVA4_RHISA]
number of chemokines bound with log2E > 5 [6]: over 15

sHD2: HD2 generated as HIS:SUMO fusion protein in E.coli for BLI (EEDDYTAYAPLTCYFT; also: HIS:SUMO fusion protein, side not given here)
specific binding in BLI cross-binding screen (CCL11): specifically and reproducibly bind
specific binding in BLI cross-binding screen (CCL1): specifically and reproducibly bind
specific binding in BLI cross-binding screen (CXCL13): specifically and reproducibly bind
specific binding in BLI cross-binding screen (CXCL10 [7]): specifically and reproducibly bind
specific binding in BLI cross-binding screen (CCL5 [8]): specifically and reproducibly bind
specific binding in BLI cross-binding screen (CCL7 [9]): specifically and reproducibly bind
specific binding in BLI cross-binding screen (CCL8 [10]; 1 μM chemokine, fusion 1 mg/mL immobilised, specific if Rmax exceeded 3 times Rmax of SUMO:HD2SCR, two independent experiments): specifically and reproducibly bind
Kd (CCL8 [10]; Expt ID E12, N = 5 dose responses with good fits, BLI kinetic assay, 1:1 binding model, 25 °C): 142 nM
